Our source for the pest or weed control values is US20200288710A1, “SUBSTITUTED SULPHONAMIDES FOR CONTROLLING ANIMAL PESTS” (BAYER CROPSCIENCE AKTIENGESELLSCHAFT, priority 2016, published 2020).

Common to all, as to type: in vivo
Assay [1] concerns Myzus persicae. Description: Myzus persicae spray test (Chinese cabbage leaf discs). The note with it: foliar, 120 h, 500 g/ha, after 5-6 days, read-out: efficacy. The essentials:
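Chinese cabbage leaf discs infested with all stages of green peach aphid were sprayed with compound formulated in acetone/DMF and emulsifier-containing water. Efficacy in % was scored after 5-6 days, with 100% meaning all aphids killed and 0% none killed.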

A further assay relates to Tetranychus urticae. Description: Tetranychus urticae spray test, OP-resistant. The note with it: foliar, 144 h, bean leaf discs, after 6 days, read-out: efficacy. On the procedure:
Tetranychus urticae—Spray Test, OP-Resistant
To produce a suitable preparation of active compound, 1 part by weight of active compound is dissolved using the specified parts by weight of solvent and made up with water containing an emulsifier concentration of 1000 ppm until the desired concentration is attained. To produce further test concentrations, the formulation is diluted with emulsifier-containing water.
Discs of bean leaves (Phaseolus vulgaris) infested with all stages of the greenhouse red spider mite (Tetranychus urticae) are sprayed with an active compound preparation of the desired concentration.
After 6 days, the efficacy in % is determined. 100% means that all the spider mites have been killed; 0% means that no spider mites have been killed.

Assay [2] relates to Myzus persicae. The assay can be described thus: Myzus persicae oral test. The following applies: 120 h, 20 ppm, oral uptake, after 5 days, read-out: efficacy. In outline: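 Compound dissolved in acetone, diluted in water, then mixed 50:150 μl with IPL41 insect medium (33%+15% sugar). Mixed-population green peach aphids feed through a parafilm seal on the solution; mortality scored as % efficacy after 5 days (100% = all killed).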

The test system of another assay is Meloidogyne incognita. Description: Meloidogyne incognita test. The following applies: 336 h, lettuce, after 14 days, read-out: nematicidal efficacy (formation of galls). The essentials: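 Active compound in acetone, diluted with water, added to sand-filled vessels with M. incognita eggs/larvae and lettuce seeds. After 14 days, efficacy scored by root gall formation: 100% = no galls, 0% = galls equal to untreated control.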

Another assay has as its system Phaedon cochleariae. Description: Phaedon cochleariae spray test. The following applies: foliar, 168 h, Chinese cabbage leaf discs, larvae, after 7 days, read-out: efficacy. In outline: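 Compound dissolved in solvent and diluted with water containing 1000 ppm emulsifier to test concentrations. Efficacy read after 7 days as % beetle larvae killed (100% all killed, 0% none).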

For another assay, the system named is Lucilia cuprina. The assay can be described thus: Lucilia cuprina test. The note with it: 48 h, L1 larvae, after 2 days, read-out: efficacy (kill in %). On the procedure: Lucilia cuprina Test Solvent: dimethyl sulphoxide To produce a suitable preparation of active compound, 10 mg of active compound are mixed with 0.5 ml of dimethyl sulphoxide, and the concentrate is diluted with water to the desired concentration. About 20 L1 larvae of the Australian sheep blowfly (Lucilia cuprina) are transferred into a test vessel containing minced horsemeat and the active compound preparation of the desired concentration. After 2 days, the kill in % is determined. 100% means that all the larvae have been killed; 0% means that no larvae have been killed.

With `CCS(=O)(=O)NC(=O)c1nc(-c2ccccc2Cl)n(C)c1C` [Example 70], the pest or weed control at 500 g/ha with Myzus persicae [1] and with Tetranychus urticae was 90% throughout. Further, in the assay on Myzus persicae [2], the pest or weed control at 20 ppm stood at 100%.

Turning to `O=C(NS(=O)(=O)CC(F)(F)F)c1cn(-c2ccccc2)c(-c2ccccc2Cl)n1` [Example 74], the pest or weed control at 500 g/ha in the assay on Tetranychus urticae came out at 100%.

Regarding `Cc1ccccc1-c1nc(C(=O)NS(=O)(=O)CC(F)(F)F)cn1C` [Example 87], the pest or weed control at 500 g/ha with Myzus persicae [1] came out at 100%; in the assay with Tetranychus urticae it was 90%.

With `Cc1cc(C(=O)NS(=O)(=O)c2ccccc2Cl)nn1-c1ccccc1C(F)(F)F` [Example 291], the pest or weed control at 500 g/ha in the assay with Tetranychus urticae is 90%. The pest or weed control at 20 ppm with Meloidogyne incognita was 90%.

In the case of `Cc1cc(C(=O)NS(=O)(=O)c2cc(Cl)ccc2Br)nn1-c1ccccc1C(F)(F)F` [Example 293], the pest or weed control at 500 g/ha in the assay with Tetranychus urticae turned out to be 100%. The pest or weed control at 20 ppm in the assay with Meloidogyne incognita turned out to be 90%.

For the compound `CCc1cc(Br)ccc1S(=O)(=O)NC(=O)c1cn(C)c(-c2c(F)cccc2F)n1` [Example 341], the results for the pest or weed control at 500 g/ha in the assay on Myzus persicae [1] and with Phaedon cochleariae were 90% and 100%, respectively. Further, the pest or weed control at 20 ppm with Myzus persicae [2] and with Meloidogyne incognita was 100% throughout. The pest or weed control at 100 ppm in the assay on Lucilia cuprina was found to be 100%.

Take `Cc1cccc(Cl)c1S(=O)(=O)NC(=O)c1cn(C)c(-c2c(F)cccc2F)n1` [Example 364]: the pest or weed control at 500 g/ha in the assay on Myzus persicae [1] and in the assay on Phaedon cochleariae was 100% each time. In addition, the pest or weed control at 20 ppm in the assay on Myzus persicae [2] and in the assay with Meloidogyne incognita was 100% in each case. Further, the pest or weed control at 100 ppm in the assay with Lucilia cuprina came to 100%.

On to `Cc1ccc(F)cc1S(=O)(=O)NC(=O)c1cn(C)c(-c2c(F)cccc2F)n1` [Example 397], for which the pest or weed control at 500 g/ha in the assay on Myzus persicae [1] and in the assay on Phaedon cochleariae was 100% each time. The values for the pest or weed control at 20 ppm with Myzus persicae [2] and in the assay on Meloidogyne incognita were 100% and 90%, respectively. For the same compound, the pest or weed control at 100 ppm with Lucilia cuprina was found to be 100%.

Consider `COc1ccc(C)c(S(=O)(=O)NC(=O)c2cn(C)c(-c3c(F)cccc3F)n2)c1` [Example 401], for which the pest or weed control at 500 g/ha with Myzus persicae [1] and with Phaedon cochleariae was 100% throughout. In addition, the values for the pest or weed control at 20 ppm with Myzus persicae [2] and in the assay on Meloidogyne incognita were 100% and 90%, respectively. In the assay with Lucilia cuprina, the pest or weed control at 100 ppm is 100%.

Turning to `COc1ccc(Cl)c(S(=O)(=O)NC(=O)c2nc(-c3c(F)cccc3F)nn2C)c1` [Example 406], the pest or weed control at 500 g/ha in the assay with Tetranychus urticae was 90%. Besides, the pest or weed control at 20 ppm in the assay with Meloidogyne incognita was determined as 90%.

In the case of `Cn1nc(-c2c(F)cccc2F)nc1C(=O)NS(=O)(=O)c1ccccc1Cl` [Example 407], the pest or weed control at 500 g/ha in the assay with Tetranychus urticae worked out at 90%. For the same compound, the pest or weed control at 20 ppm in the assay with Meloidogyne incognita stood at 90%.

`Cc1ccccc1S(=O)(=O)NC(=O)c1cn(C)c(-c2cccc(Cl)c2Cl)n1` [Example 519]: the pest or weed control at 500 g/ha in the assay with Myzus persicae [1] came to 90%; with Phaedon cochleariae it was 100%. Further, the pest or weed control at 20 ppm in the assay on Myzus persicae [2] and in the assay on Meloidogyne incognita was 100% each time. In addition, the pest or weed control at 100 ppm with Lucilia cuprina turned out to be 100%.

As for `Cc1cccc(C)c1S(=O)(=O)NC(=O)c1cn(C)c(-c2cccc(Cl)c2Cl)n1` [Example 558], the figures for the pest or weed control at 500 g/ha in the assay with Myzus persicae [1] and with Phaedon cochleariae were 90% and 100%, respectively. Also, the pest or weed control at 20 ppm turned out to be 100% in the assay on Myzus persicae [2] and 90% in the assay on Meloidogyne incognita. The pest or weed control at 100 ppm in the assay with Lucilia cuprina was 100%.

Turning to `Cc1ccsc1S(=O)(=O)NC(=O)c1cn(C)c(-c2ncccc2F)n1` [Example 573], the pest or weed control at 500 g/ha in the assay on Myzus persicae [1] and with Tetranychus urticae was 90% each time. In addition, the pest or weed control at 20 ppm in the assay with Myzus persicae [2] was 100%.

For the compound `Cc1ccc(F)cc1S(=O)(=O)NC(=O)c1cn(C)c(-c2ncccc2Cl)n1` [Example 584], the pest or weed control at 500 g/ha in the assay on Myzus persicae [1] and in the assay with Phaedon cochleariae was 100% in each case. Also, the pest or weed control at 20 ppm with Myzus persicae [2] was found to be 100%; in the assay with Meloidogyne incognita it was 90%. Moreover, the pest or weed control at 100 ppm with Lucilia cuprina is 100%.
